Literature values as cited in article PMC8371712 (ACS chemical biology, 2021).

Experiments:
[1] = system: various microsomal cytochrome P450 enzymes; details: margin of safety statement; no reference given
[2] = system: Cerep SpectrumScreen panel of 176 pharmacological targets
[3] = no reference given
[4] = system: aspartate aminotransferase; details: margin of safety statement; no reference given
[5] = system: hERG potassium ion channel; details: margin of safety statement; no reference given
[6] = system: alanine aminotransferase; details: margin of safety statement; no reference given
[7] = system: release of dopamine in the corpus striatum; details: no reference given

In the case of N[C@H]1C=C(C(=O)O)CC1=C(F)F [OV329, (S)-3-amino-(difluoromethylenyl)cyclopent-1-ene-1-carboxylic acid], the “activity against microsomal cytochrome P450 enzymes” value [1] is given as “lack of activity”, the “activity in Cerep SpectrumScreen panel” value [2] is given as “lack of activity” and the Ames test [3] is given as “negative”. The “activity against aspartate aminotransferase” value [4] was “lack of activity”, the “activity against hERG potassium ion channel” value [5] was “lack of activity” and the “activity against alanine aminotransferase” value [6] was “lack of activity”. For the same molecule, the “release of dopamine in the corpus striatum” value [7] was “blocks the release of dopamine”.
